BigSolDB 2.1

CC(C)=CCOc1c2occc2cc2ccc(=O)oc12
solubility (mole fraction)
Settings | 288.2 K | 293.2 K | 298.2 K | 303.2 K | 308.2 K | 313.2 K | 318.2 K | 323.2 K | 328.2 K
in ethanol | 0.00325 | 0.00454 | 0.0063 | 0.00865 | 0.0118 | 0.016 | 0.0215 | 0.0288 | 0.0382
in water | 7.4e-07 | 1.03e-06 | 1.06e-06 | 1.03e-06 | 1.35e-06 | 1.46e-06 | 1.5e-06 | 1.53e-06 | 1.81e-06
